Target: T1, IDO1 (Homo sapiens, UniProt P14902)
T1 construct: HeLa cells were treated with a test compound in the presence of IFNγ, which induces IDO1 expression; host or cells: H1-HeLa cells, IDO1 induced with IFNγ
Assay: Cell-based (HeLa) assay for measurement of IDO1 inhibition (kynurenine levels in supernatant after IFNγ induction)
Details: HeLa cells, geometric mean of a minimum of four determinations
Procedure, shortened: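 IDO1 activity is read as kynurenine released into the medium, detected with Ehrlich's reagent (p-dimethylaminobenzaldehyde) at 480 nm after TCA treatment. HeLa cells were exposed 48 h to compounds in 0.5% DMSO alongside IFNγ induction. Values normalized to no-IFNγ and IFNγ controls; four-parameter EC50 given as geometric mean of ≥4 determinations.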

[1] = IFNγ-induced IDO1, kynurenine in supernatant after 48 hour incubation
[2] = IFNγ-induced IDO1, kynurenine in supernatant, 48 hour incubation

T1 sequence (P14902 whole entry): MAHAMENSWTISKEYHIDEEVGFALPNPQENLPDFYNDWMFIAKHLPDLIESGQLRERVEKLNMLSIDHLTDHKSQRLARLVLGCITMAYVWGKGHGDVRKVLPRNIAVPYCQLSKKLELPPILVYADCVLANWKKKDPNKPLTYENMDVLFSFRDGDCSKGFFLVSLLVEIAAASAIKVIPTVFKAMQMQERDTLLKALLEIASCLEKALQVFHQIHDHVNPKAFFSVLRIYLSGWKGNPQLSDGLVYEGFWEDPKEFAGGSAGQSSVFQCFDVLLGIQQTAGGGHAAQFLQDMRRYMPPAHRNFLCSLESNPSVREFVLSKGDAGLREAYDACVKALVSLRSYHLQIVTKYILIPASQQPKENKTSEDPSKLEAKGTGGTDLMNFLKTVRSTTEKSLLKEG

EC50 [1] [nM] | EC50 [2] [nM] | SMILES
2640 | – | CCC#Cc1cc(N/C(=N\O)c2ccnc3nc[nH]c23)ccc1F [Example 78, N-(3-(But-1-yn-1-yl)-4-fluorophenyl)-N′-hydroxy-1H-imidazo[4,5-b]pyridine-7-carboximidamide]
– | 1230 | CN(CCc1nc2nccc(/C(=N/O)Nc3ccc(F)c(Cl)c3)c2[nH]1)CC(C)(C)C [Example 392, N-(3-chloro-4-fluorophenyl)-N′-hydroxy-2-(2-(methyl(neopentyl)amino)ethyl)-1H-imidazo[4,5-b]pyridine-7-carboximidamide]
– | 2350 | O/N=C(\Nc1ccc(F)c(Cl)c1)c1cc(F)c(F)c2nc(NC3CCNC3)[nH]c12 (centres unmarked) [Example 464, N-(3-chloro-4-fluorophenyl)-4,5-difluoro-N′-hydroxy-2-(pyrrolidin-3-ylamino)-1H-benzo[d]imidazole-7-carboximidamide]
– | 6250 | CN1CCN(CCNc2nc3c(F)c(F)cc(/C(=N/O)Nc4ccc(F)c(Cl)c4)c3[nH]2)CC1=O [Example 449, N-(3-chloro-4-fluorophenyl)-4,5-difluoro-N′-hydroxy-2-((2-(4-methyl-3-oxopiperazin-1-yl)ethyl)amino)-1H-benzo[d]imidazole-7-carboximidamide]
111 | – | O/N=C(\Nc1cccc(Br)c1)c1ccnc2nc[nH]c12 [Example 80, N-(3-Bromophenyl)-N′-hydroxy-1H-imidazo[4,5-b]pyridine-7-carboximidamide]
382 | – | Nc1nc2c(F)ccc(/C(=N/O)Nc3ccc(F)c(Cl)c3)c2[nH]1 [Example 22, 2-Amino-N-(3-chloro-4-fluorophenyl)-4-fluoro-N′-hydroxy-1H-benzo[d]imidazole-7-carboximidamide]
– | 1260 | O/N=C(\Nc1ccc(F)c(Cl)c1)c1ccc(F)c2nc(NCCN3CCCC3)[nH]c12 [Example 376, N-(3-chloro-4-fluorophenyl)-4-fluoro-N′-hydroxy-2-((2-(pyrrolidin-1-yl)ethyl)amino)-1H-benzo[d]imidazole-7-carboximidamide]
453 | – | CC(C)OC(=O)Nc1nc2nccc(/C(=N/O)Nc3ccc(F)c(Cl)c3)c2[nH]1 [Example 159, Isopropyl (7-(N-(3-chloro-4-fluorophenyl)-N′-hydroxycarbamimidoyl)-1H-imidazo[4,5-b]pyridin-2-yl)carbamate]
602 | – | O/N=C(\Nc1cccc(Cl)c1)c1ccnc2nc(CCN3CCCCC3)[nH]c12 [Example 271, N-(3-chlorophenyl)-N′-hydroxy-2-(2-(piperidin-1-yl)ethyl)-1H-imidazo[4,5-b]pyridine-7-carboximidamide]
501 | – | CN(C)CCc1nc2nccc(/C(=N/O)Nc3cccc(Br)c3)c2[nH]1 [Example 265, N-(3-bromophenyl)-2-(2-(dimethylamino)ethyl)-N′-hydroxy-1H-imidazo[4,5-b]pyridine-7-carboximidamide]
2290 | – | O/N=C(\Nc1ccc(F)c(-c2ccccc2)c1)c1ccnc2nc[nH]c12 [Example 77, N-(6-Fluoro-[1,1′-biphenyl]-3-yl)-N′-hydroxy-1H-imidazo[4,5-b]pyridine-7-carboximidamide]
– | 1350 | CN1CCOCC1CNc1nc2c(F)c(F)cc(/C(=N/O)Nc3ccc(F)c(Cl)c3)c2[nH]1 (centres unmarked) [Example 429, N-(3-chloro-4-fluorophenyl)-4,5-difluoro-N′-hydroxy-2-(((4-methylmorpholin-3-yl)methyl)amino)-1H-benzo[d]imidazole-7-carboximidamide]
– | > 10000 | O/N=C(\Nc1ccc(F)c(Cl)c1)c1ccnc2nc(NCc3ncccn3)[nH]c12 [Example 494, N-(3-chloro-4-fluorophenyl)-N′-hydroxy-2-((pyrimidin-2-ylmethyl)amino)-1H-imidazo[4,5-b]pyridine-7-carboximidamide]
– | > 10000 | NS(=O)(=O)NCCNc1nc2c(F)c(F)cc(/C(=N/O)Nc3ccc(F)c(Cl)c3)c2[nH]1 [Example 338, N-(3-chloro-4-fluorophenyl)-4,5-difluoro-N′-hydroxy-2-((2-(sulfamoylamino)ethyl)amino)-1H-benzo[d]imidazole-7-carboximidamide]
1260 | – | O/N=C(\Nc1ccc(F)c(Cl)c1)c1ccnc2nc(CCNC3CC3)[nH]c12 [Example 207, N-(3-chloro-4-fluorophenyl)-2-(2-(cyclopropylamino)ethyl)-N′-hydroxy-3H-imidazo[4,5-b]pyridine-7-carboximidamide]
2280 | – | O/N=C(\Nc1ccc(F)c(Cl)c1)c1ccnc2nc(CNCc3cccnc3)[nH]c12 [Example 126, N-(3-Chloro-4-fluorophenyl)-N′-hydroxy-2-(((pyridin-3-ylmethyl)amino)methyl)-1H-imidazo[4,5-b]pyridine-7-carboximidamide]
– | 6660 | CN(C)[C@@H]1CCC[C@H](Nc2nc3c(F)c(F)cc(/C(=N/O)Nc4ccc(F)c(Cl)c4)c3[nH]2)C1 [Example 440, N-(3-chloro-4-fluorophenyl)-2-(((1S,3R)-3-(dimethylamino)cyclohexyl)amino)-4,5-difluoro-N′-hydroxy-1H-benzo[d]imidazole-7-carboximidamide]
1220 | – | Cc1ccc(/C(=N/O)Nc2ccc(F)c(Cl)c2)c2[nH]cnc12 [Example 1, N-(3-Chloro-4-fluorophenyl)-N′-hydroxy-4-methyl-1H-benzo[d]imidazole-7-carboximidamide]
1400 | – | O/N=C(\Nc1ccc(F)c(Cl)c1)c1ccnc2nc(CN3CCCC3)[nH]c12 [Example 139, N-(3-Chloro-4-fluorophenyl)-N′-hydroxy-2-(pyrrolidin-1-ylmethyl)-1H-imidazo[4,5-b]pyridine-7-carboximidamide]
– | 736 | Nc1nc2cc(F)cc(/C(=N/O)Nc3ccc(F)c(Br)c3)c2[nH]1 [Example 373, 2-amino-N-(3-bromo-4-fluorophenyl)-5-fluoro-N′-hydroxy-1H-benzo[d]imidazole-7-carboximidamide]
1670 | – | OCc1nc2nccc(/C(=N/O)Nc3ccc(F)c(Cl)c3)c2[nH]1 [Example 177, N-(3-Chloro-4-fluorophenyl)-N′-hydroxy-2-(hydroxymethyl)-1H-imidazo[4,5-b]pyridine-7-carboximidamide]
2110 | – | O/N=C(\Nc1cc(F)cc(C(F)(F)F)c1)c1ccnc2nc[nH]c12 [Example 75, N-(3-Fluoro-5-(trifluoromethyl)phenyl)-N′-hydroxy-1H-imidazo[4,5-b]pyridine-7-carboximidamide]
– | 1300 | CC(CCNc1nc2c(F)c(F)cc(/C(=N/O)Nc3ccc(F)c(Cl)c3)c2[nH]1)N(C)C (centres unmarked) [Example 353, N-(3-chloro-4-fluorophenyl)-2-((3-(dimethylamino)butyl)amino)-4,5-difluoro-N′-hydroxy-1H-benzo[d]imidazole-7-carboximidamide]
769 | – | O/N=C(\Nc1cc(Cl)ccc1Cl)c1ccnc2nc[nH]c12 [Example 76, N-(2,5-Dichlorophenyl)-N′-hydroxy-1H-imidazo[4,5-b]pyridine-7-carboximidamide]
2320 | – | COCc1nc2nccc(/C(=N/O)Nc3ccc(F)c(Cl)c3)c2[nH]1 [Example 110, N-(3-Chloro-4-fluorophenyl)-N′-hydroxy-2-(methoxymethyl)-1H-imidazo[4,5-b]pyridine-7-carboximidamide]
1790 | – | O/N=C(\Nc1ccc(F)c(Cl)c1)c1cccc2nc[nH]c12 [Example 8, N-(3-Chloro-4-fluorophenyl)-N′-hydroxy-1H-benzo[d]imidazole-7-carboximidamide]

From patent US9951065B2 (Gilead Sciences, Inc., priority 2015, dated 2018)
